Source: US20140296212A1, “SUBSTITUTED PHENOXYPROPYLCYCLOAMINE DERIVATIVES AS HISTAMINE-3 (H3) RECEPTOR LIGANDS” (CEPHALON, INC., priority 2009, published 2014)
Where two headings read alike, the source gives them in different places.

Key:
[1] = target: T1, rat histamine H3 receptor (Rattus norvegicus, UniProt Q9QYN8); assay: Rat H3 radioligand binding ([3H]-N-alpha-methylhistamine, SPA)
T1 construct: encoding the entire 445-amino-acid rat histamine H3 receptor; expressed in transfected cells
Source text: The rat H3 receptor cDNA was PCR amplified from reverse-transcribed RNA pooled from rat thalamus, hypothalamus, striatum and prefrontal cortex with a sequence corresponding to by #338-1672 of Genbank file #NM_053506, encoding the entire 445-amino-acid rat histamine H3 receptor. This was engineered into the pIRES-neo3 mammalian expression vector, which was stably transfected into the CHO-A3 cell line (Euroscreen, Belgium), followed by clonal selection by limiting dilution. Cells were harvested and cell pellets were frozen (−80° C.). Cell pellets were resuspended in 5 mM Tris-HCl, pH 7.5 with 5 nM EDTA and a cocktail of protease inhibitors (Complete Protease Inhibitor Tablets, Roche Diagnostics). Cells were disrupted using a polytron cell homogenizer and the suspension was centrifuged at 1000×g for 10 minutes at 4° C. The pellet was discarded and the supernatant centrifuged at 40,000×g for 30 min at 4° C. This membrane pellet was washed in membrane buffer containing 50 mM Tris-HCl, pH 7.5 with 0.6 mM EDTA, 5 mM MgCl2 and protease inhibitors, recentrifuged as above and the final pellet resuspended in membrane buffer plus 250 mM sucrose and frozen at −80° C.
(§1) Membranes were resuspended in 50 mM Tris HCl (pH 7.4), 5 mM MgCl2, 0.1% BSA. The membrane suspensions (10 μg protein per well) were incubated in a 96 well microtiter plate with [^3H]-N-alpha-methylhistamine (approximately 1 nM final concentration), test compounds at various concentrations (0.01 nM-30 μM) and scintillation proximity beads (Perkin Elmer, FlashBlueGPCR Scintillating Beads) in a final volume of 80 μl for 4 hours at room temperature, protected from light. Non-specific binding was determined in the presence of 10 μM clobenpropit. Radioligand bound to receptor, and therefore in proximity to the scintillation beads, was measured using a MicroBeta scintillation counter.

human H3 receptor = target: T2, human H3 receptor (Homo sapiens, UniProt Q9Y5N1); assay: Human H3 radioligand binding ([3H]-N-alpha-methylhistamine, SPA); details: membranes of CHO cells expressing human H3
T2 construct: expressed in transfected cells
Protocol: Cell pellets were resuspended in 5 mM Tris-HCl, pH 7.5 with 5 nM EDTA and a cocktail of protease inhibitors (Complete Protease Inhibitor Tablets, Roche Diagnostics). Cells were disrupted using a polytron cell homogenizer and the suspension was centrifuged at 1000×g for 10 minutes at 4° C. The pellet was discarded and the supernatant centrifuged at 40,000×g for 30 min at 4° C. This membrane pellet was washed in membrane buffer containing 50 mM Tris-HCl, pH 7.5 with 0.6 mM EDTA, 5 mM MgCl2 and protease inhibitors, recentrifuged as above and the final pellet resuspended in membrane buffer plus 250 mM sucrose and frozen at −80° C.
as §1

[2] = membranes of CHO-A3 cells expressing rat H3, [3H]-N-alpha-methylhistamine, read-out: Rat H3 Ki

T1 sequence (Q9QYN8 whole entry): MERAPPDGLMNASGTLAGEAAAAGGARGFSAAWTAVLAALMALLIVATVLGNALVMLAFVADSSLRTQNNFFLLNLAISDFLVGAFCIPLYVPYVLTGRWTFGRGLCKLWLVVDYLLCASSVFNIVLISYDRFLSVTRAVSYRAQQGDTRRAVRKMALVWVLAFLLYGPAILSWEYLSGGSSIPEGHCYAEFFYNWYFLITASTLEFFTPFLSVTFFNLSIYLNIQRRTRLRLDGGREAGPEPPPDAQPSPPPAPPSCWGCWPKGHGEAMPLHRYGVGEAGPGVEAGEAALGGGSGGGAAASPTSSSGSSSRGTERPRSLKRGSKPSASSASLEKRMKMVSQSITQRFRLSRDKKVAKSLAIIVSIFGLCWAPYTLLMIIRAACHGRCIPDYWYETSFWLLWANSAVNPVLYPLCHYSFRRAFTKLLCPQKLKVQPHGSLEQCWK
T2 sequence (Q9Y5N1 whole entry): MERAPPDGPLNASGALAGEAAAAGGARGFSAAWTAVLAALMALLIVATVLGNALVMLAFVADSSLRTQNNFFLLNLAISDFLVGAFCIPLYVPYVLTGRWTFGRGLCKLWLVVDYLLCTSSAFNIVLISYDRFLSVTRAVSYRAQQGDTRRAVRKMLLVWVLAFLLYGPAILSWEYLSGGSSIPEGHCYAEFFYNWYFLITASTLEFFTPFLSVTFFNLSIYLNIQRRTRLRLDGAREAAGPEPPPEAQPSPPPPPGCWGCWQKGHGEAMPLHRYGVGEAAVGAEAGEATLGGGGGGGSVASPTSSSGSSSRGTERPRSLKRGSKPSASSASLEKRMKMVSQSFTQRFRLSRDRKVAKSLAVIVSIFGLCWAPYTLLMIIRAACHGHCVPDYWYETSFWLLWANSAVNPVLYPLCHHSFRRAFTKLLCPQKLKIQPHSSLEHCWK

SMILES	Ki [1, 2] [nM]	Ki (human H3 receptor) [nM]	Ki [1] [nM]
O=C(CN1CCOCC1)c1ccc(OCCCN2CCCC2)cc1 [Example 15, 2-Morpholin-4-yl-1-[4-(3-pyrrolidin-1-yl-propoxy)-phenyl]-ethanone]	501 to 1000	101 to 500	
C[C@@H]1CCCN1CCCOc1ccc(C(=O)CN2CCCC2=O)cc1 [Example 21, 1-(2-{4-[3-((R)-2-Methyl-pyrrolidin-1-yl)-propoxy]-phenyl}-2-oxo-ethyl)-pyrrolidin-2-one]	101 to 500	0.1 to 100	
C[C@@H]1CCCN1CCCOc1ccc(C(=O)CN2CCCCC2=O)cc1 [Example 22, 1-(2-{4-[3-((R)-2-Methyl-pyrrolidin-1-yl)-propoxy]-phenyl}-2-oxo-ethyl)-piperidin-2-one]	101 to 500	0.1 to 100	
CC1CCCN1CCCOc1ccc(C(=O)C(C)N2CCOCC2)cc1 (centres unmarked) [Example 27, 1-{4-[3-(2-Methyl-pyrrolidin-1-yl)-propoxy]-phenyl}-2-morpholin-4-yl-propan-1-one]		0.1 to 100	0.1 to 100
CC(C)N1CCC(Oc2ccc(C(=O)CN3CCOCC3)cc2)CC1 [Example 45, 1-[4-(1-Isopropyl-piperidin-4-yloxy)-phenyl]-2-morpholin-4-yl-ethanone]	101 to 500	0.1 to 100	
O=C(CN1CCOCC1)c1ccc(OCCCN2CCCC2=O)cc1 [Example 67, 1-{3-[4-(2-Morpholin-4-yl-acetyl)-phenoxy]-propyl}-pyrrolidin-2-one]	> 1000	> 1000	
Cc1cc(OCCCN2CCC[C@H]2C)ccc1C(=O)CN1CCOCC1 [Example 74, 1-{2-Methyl-4-[3-((R)-2-methyl-pyrrolidin-1-yl)-propoxy]-phenyl}-2-morpholin-4-yl-ethanone]	101 to 500	0.1 to 100	
Cc1cc(C(=O)CN2CCN(C(=O)c3ccccc3)CC2)ccc1OCCCN1CCC[C@H]1C [Example 107, 2-(4-Benzoyl-piperazin-1-yl)-1-{3-methyl-4-[3-((R)-2-methyl-pyrrolidin-1-yl)-propoxy]-phenyl}-ethanone]	0.1 to 100	0.1 to 100	
COc1cc(C(=O)CN2CCN(C(=O)c3ccccc3)CC2)ccc1OCCCN1CCC[C@H]1C [Example 112, 2-(4-Benzoyl-piperazin-1-yl)-1-{3-methoxy-4-[3-((R)-2-methyl-pyrrolidin-1-yl)-propoxy]-phenyl}-ethanone]	> 1000	101 to 500	
CC(C)COC(=O)N1CCN(CC(=O)c2ccc(OCCCN3CCC[C@H]3C)cc2)CC1 [Example 131, 4-(2-{4-[3-((R)-2-Methyl-pyrrolidin-1-yl)-propoxy]-phenyl}-2-oxo-ethyl)-piperazine-1-carboxylic acid isobutyl ester]	0.1 to 100	0.1 to 100	
C[C@@H]1CCCN1CCCOc1ccc(C(=O)CN2CCN(C(=O)c3cccc4ccccc34)CC2)cc1 [Example 133, 1-{4-[3-((R)-2-Methyl-pyrrolidin-1-yl)-propoxy]-phenyl}-2-[4-(naphthalene-1-carbonyl)-piperazin-1-yl]-ethanone]	0.1 to 100	0.1 to 100	
Cc1cc(C(=O)CN2CCC(F)(F)CC2)ccc1OCCCN1CCC[C@H]1C [Example 136, 2-(4,4-Difluoro-piperidin-1-yl)-1-{3-methyl-4-[3-((R)-2-methyl-pyrrolidin-1-yl)-propoxy]-phenyl}-ethanone]	101 to 500	0.1 to 100	
COC(=O)N1CCN(CC(=O)c2ccc(OCCCN3CCC[C@H]3C)c(C)c2)CC1 [Example 137, 4-(2-{3-Methyl-4-[3-((R)-2-methyl-pyrrolidin-1-yl)-propoxy]-phenyl}-2-oxo-ethyl)-piperazine-1-carboxylic acid methyl ester]	0.1 to 100	0.1 to 100	
Cc1cc(C)cc(C(=O)N2CCN(CC(=O)c3ccc(OCCCN4CCC[C@H]4C)cc3)CC2)c1 [Example 140, 2-[4-(3,5-Dimethyl-benzoyl)-piperazin-1-yl]-1-{4-[3-((R)-2-methyl-pyrrolidin-1-yl)-propoxy]-phenyl}-ethanone]	0.1 to 100	0.1 to 100	
Cc1nc2ccccc2n1CC(=O)c1ccc(OCCCN2CCC[C@H]2C)cc1 [Example 142, 2-(2-Methyl-benzoimidazol-1-yl)-1-{4-[3-((R)-2-methyl-pyrrolidin-1-yl)-propoxy]-phenyl}-ethanone]	0.1 to 100	0.1 to 100	
C[C@@H]1CCCN1CCCOc1ccc(/C(CN2CCCCC2)=N/OC(C)(C)C)cc1 [Example 160]	0.1 to 100	0.1 to 100	
C[C@@H]1CCCN1CCCOc1ccc(/C(CN2CCCCC2=O)=N/OC(C)(C)C)cc1 [Example 167]	0.1 to 100	0.1 to 100	

Second part, led by results:

Ki [1, 2] [nM]	Ki (human H3 receptor) [nM]	SMILES	Ki [1] [nM]
0.1 to 100	0.1 to 100	C[C@@H]1CCCN1CCCOc1ccc(C(=O)CN2CCOC(c3ccccc3)C2)cc1 (stereo partly drawn) [Example 29, 1-{4-[3-((R)-2-Methyl-pyrrolidin-1-yl)-propoxy]-phenyl}-2-(2-phenyl-morpholin-4-yl)-ethanone]	
0.1 to 100	0.1 to 100	C[C@@H]1CN(CC(=O)c2ccc(OCCCN3CCC[C@H]3C)cc2)C[C@H](C)O1 [Example 38, 2-((2R,6S)-2,6-Dimethyl-morpholin-4-yl)-1-{4-[3-((R)-2-methyl-pyrrolidin-1-yl)-propoxy]-phenyl}-ethanone]	
0.1 to 100	0.1 to 100	C[C@@H]1CCCN1CCCOc1ccc(C(=O)CN2CCO[C@@H](c3ccccc3)C2)cc1 [Example 39, 1-{4-[3-((R)-2-Methyl-pyrrolidin-1-yl)-propoxy]-phenyl}-2-((S)-2-phenyl-morpholin-4-yl)-ethanone]	
0.1 to 100	0.1 to 100	C[C@@H]1CCCN1CCCOc1ccc(C(=O)CN2CCO[C@H](c3ccccc3)C2)cc1 [Example 40, 1-{4-[3-((R)-2-Methyl-pyrrolidin-1-yl)-propoxy]-phenyl}-2-((R)-2-phenyl-morpholin-4-yl)-ethanone]	
0.1 to 100	0.1 to 100	C[C@@H]1CCCN1CCCOc1ccc(C(=O)CN2CCC(C#N)CC2)cc1 [Example 43, 1-(2-{4-[3-((R)-2-Methyl-pyrrolidin-1-yl)-propoxy]-phenyl}-2-oxo-ethyl)-piperidine-4-carbonitrile]	
0.1 to 100	0.1 to 100	C[C@@H]1CCCN1CCCOc1ccc(C(=O)CN2CCC(C(F)(F)F)CC2)cc1 [Example 47, 1-{4-[3-((R)-2-Methyl-pyrrolidin-1-yl)-propoxy]-phenyl}-2-(4-trifluoromethyl-piperidin-1-yl)-ethanone]	
0.1 to 100	0.1 to 100	C[C@@H]1CCCN1CCCOc1ccc(C(=O)CN2CCCC(F)(F)C2)cc1 [Example 52, 2-(3,3-Difluoro-piperidin-1-yl)-1-{4-[3-((R)-2-methyl-pyrrolidin-1-yl)-propoxy]-phenyl}-ethanone]	
0.1 to 100	0.1 to 100	C[C@@H]1CCCN1CCCOc1ccc(C(=O)C(C)(C)N2CCOCC2)cc1 [Example 54]	
0.1 to 100	0.1 to 100	C[C@@H]1CCCN1CCCOc1ccc(C(=O)CN2CCC(F)(F)C2)cc1 [Example 60, 2-(3,3-Difluoro-pyrrolidin-1-yl)-1-{4-[3-((R)-2-methyl-pyrrolidin-1-yl)-propoxy]-phenyl}-ethanone]	
0.1 to 100	0.1 to 100	C[C@@H]1CCCN1CCCOc1ccc(C(=O)CN2CCN(C(=O)C(F)(F)F)CC2)cc1 [Example 64]	
0.1 to 100	0.1 to 100	C[C@@H]1CCCN1CCCOc1ccc(C(=O)CN2CCN(C(=O)c3ccccc3)CC2)cc1 [Example 68, 2-(4-Benzoyl-piperazin-1-yl)-1-{4-[3-((R)-2-methyl-pyrrolidin-1-yl)-propoxy]-phenyl}-ethanone]	
0.1 to 100	0.1 to 100	C[C@@H]1CCCN1CCCOc1ccc(C(=O)CN2Cc3ccccc3C2)cc1 [Example 73, 2-(1,3-Dihydro-isoindol-2-yl)-1-{4-[3-((R)-2-methyl-pyrrolidin-1-yl)-propoxy]-phenyl}-ethanone]	
0.1 to 100	0.1 to 100	C[C@@H]1CCCN1CCCOc1ccc(C(=O)CN2Cc3ccc(F)cc3C2)cc1 [Example 86, 2-(5-Fluoro-1,3-dihydro-isoindol-2-yl)-1-{4-[3-((R)-2-methyl-pyrrolidin-1-yl)-propoxy]-phenyl}-ethanone]	
0.1 to 100	0.1 to 100	C[C@@H]1CCCN1CCCOc1ccc(C(=O)CN2CCN(C(=O)c3ccccc3)CC2)c(F)c1 [Example 103, 2-(4-Benzoyl-piperazin-1-yl)-1-{2-fluoro-4-[3-((R)-2-methyl-pyrrolidin-1-yl)-propoxy]-phenyl}-ethanone]	
